Experimental data reported in paper PMC9499365, “Stereoselective Synthesis and Application of Gibberellic Acid-Derived Aminodiols” (International Journal of Molecular Sciences, 2022).

Legend:
[1] = tested on: NIH/3T3 mouse embryo fibroblast cells; test: MTT assay on non-cancerous fibroblasts (cancer selectivity); format: cell-based; details: for Growth inhibition (%) ± SEM: 72 h
Experimental: (§1) The in vitro antiproliferative activities of the synthesized aminodiols 4–38 against a panel of different human cancer cell lines of gynecological origin, including cervical (SiHA and HeLa), breast (MCF7 and MDA-MB-231), and ovary (A2780) cancers were assayed by the MTT method. […] Cisplatin, a clinically applied anticancer agent, was used as a reference compound and the results are summarized in Figure 3 and Table S1 in Supporting Information. […] On the other hand, none of the prepared azole derivatives exerted relevant activity.
(§2) The growth-inhibitory effects of the gibberellic acid-based aminodiol derivatives were determined by a standard MTT (3-(4,5-dimethylthiazol-2-yl)-2,5-diphenyltetrazolium bromide) assay on a panel containing five cell lines, including Hela and Siha (cervical cancers); MDA-MB-231 and MCF-7 (breast cancers); and A2780 ovarian cancer cells. The most promising agents were additionally tested against NIH/3T3 mouse embryo fibroblast cells. All cell lines were purchased from the European Collection of Cell Cultures (Salisbury, UK) except SiHa, which was obtained from the American Tissue Culture Collection (Manassas, VA, USA). The cells were maintained in minimal essential medium supplemented with 10% fetal bovine serum, 1% non-essential amino acids, and 1% penicillin-streptomycin at 37 °C in a humidified atmosphere containing 5% CO2. All media and supplements were obtained from Lonza Group Ltd., (Basel, Switzerland). Cancer cells were seeded into 96-well plates (5000 cells/well), after an overnight incubation the test compound was added in 2 different concentrations (10 µM and 30 µM) and incubated for another 72 h under cell-culturing conditions. Then, 20 μL of 5 mg/mL MTT solution was added to each well and incubated for a further 4 h. The medium was removed, and the precipitated formazan crystals were dissolved in DMSO during 60 min of shaking at 37 °C. As the final step, the absorbance was measured at 545 nm by using a microplate reader (SPECTROStar Nano, BMG Labtech, Offenburg, Germany). Untreated cells were included as controls. […] These agents were additionally tested against NIH/3T3 fibroblasts to obtain results about their cancer selectivity. Two independent experiments were performed with five wells for each condition. Cisplatin (Ebewe GmbH, Unterach, Austria), a clinically used anticancer agent, was used as a positive control. Calculations were performed utilizing the GraphPad Prism 5.01 software (GraphPad Software Inc., San Diego, CA, USA).

[2] = tested on: SiHa cells (cervical cancer); test: MTT antiproliferative assay, SiHa; format: cell-based, human; details: 72 h; for inhibition at 10 µM / inhibition at 30 µM: Homo sapiens, read-out: Growth inhibition (%) ± SEM
Experimental: as §1, §2

[3] = tested on: MDA-MB-231 cells (breast cancer); test: MTT antiproliferative assay, MDA-MB-231; format: cell-based, human; details: for Growth inhibition (%) ± SEM / inhibition at 10 µM / inhibition at 30 µM: 72 h; for inhibition at 10 µM / inhibition at 30 µM: Homo sapiens, read-out: Growth inhibition (%) ± SEM
Experimental: as §1, §2

[4] = tested on: HeLa cells (cervical cancer); test: MTT antiproliferative assay, HeLa; format: cell-based, human; details: 72 h; for inhibition at 10 µM / inhibition at 30 µM: Homo sapiens, read-out: Growth inhibition (%) ± SEM
Experimental: as §1, §2

[5] = tested on: A2780 ovarian cancer cells; test: MTT antiproliferative assay, A2780; format: cell-based, human; details: for Growth inhibition (%) ± SEM / inhibition at 10 µM / inhibition at 30 µM: 72 h; for inhibition at 10 µM / inhibition at 30 µM: Homo sapiens, read-out: Growth inhibition (%) ± SEM
Experimental: as §1, §2

[6] = DPPH free radical scavenging assay; details: 0.1 mM DPPH, 30 min, 25 °C
Experimental: As a consequence, in vitro antioxidant activities of selected N-aliphatic- and N-aryl-substituted aminodiols were determined by 1,1-diphenyl-2-picrylhydrazyl (DPPH) assay.
The antioxidant effects of the aminodiol derivatives were tested on 1,1-diphenyl-2-picrylhydrazyl (DPPH) radicals according to Brand-Williams (1995) [55] and Sánchez-Moreno (2002) [56], with some modifications. […] After a 30 min incubation period at room temperature (25 °C) the absorbances were measured at 517 nm by a microplate reader (SPECTROStar Nano, BMG Labtech, Offenburg, Germany). Trolox (3,4-Dihydro-6-hydroxy-2,5,7,8-tetramethyl-2H-1-benzopyran-2-carboxylic acid) was used as a positive control. All measurements were performed in duplicate with 5 parallels.

SMILES | melting point | inhibition at 10 µM ([2]; 10 μM) | inhibition at 30 µM ([2]; 30 μM) | inhibition at 10 µM ([3]; MDA-MB-231, 10 μM) | inhibition at 30 µM ([3]; MDA-MB-231, 30 μM) | inhibition at 10 µM ([4]; 10 μM) | inhibition at 30 µM ([4]; 30 μM) | inhibition at 10 µM ([5]; A2780, 10 μM) | inhibition at 30 µM ([5]; A2780, 30 μM) | also measured
N.N.[Cl][Pt][Cl] [Cisplatin, reference compound] | – | – | – | – | – | – | – | – | – | Growth inhibition (%) ± SEM ([1]; NIH/3T3, 10 μM): 73.88 ± 1.63%; Growth inhibition (%) ± SEM ([1]; NIH/3T3, 30 μM): 97.10 ± 0.15%; IC50 ([1]; NIH/3T3, 72 h): 5.49 µM; Growth inhibition (%) ± SEM ([2]; 10 μM): 88.64 ± 0.50%; Growth inhibition (%) ± SEM ([2]; 30 μM): 90.18 ± 1.78%; IC50 [2]: 7.84 µM; Growth inhibition (%) ± SEM ([3]; MDA-MB-231, 10 μM): 67.51 ± 1.01%; Growth inhibition (%) ± SEM ([3]; MDA-MB-231, 30 μM): 87.75 ± 1.10%; IC50 ([3]; MDA-MB-231, 72 h): 3.74 µM; Growth inhibition (%) ± SEM ([4]; 10 μM): 42.61 ± 2.33%; Growth inhibition (%) ± SEM ([4]; 30 μM): 99.93 ± 0.26%; IC50 [4]: 12.4 µM; Growth inhibition (%) ± SEM ([5]; A2780, 10 μM): 83.57 ± 1.21%; Growth inhibition (%) ± SEM ([5]; A2780, 30 μM): 95.02 ± 0.28%; IC50 ([5]; A2780, 72 h): 1.3 µM
CCOC(=O)[C@H]1c2c(C)cccc2[C@H]2CC[C@]3(O)C[C@@]21C[C@]3(O)CNCc1ccc(OC)cc1 [Compound 11, Ethyl (4bS,7S,8S,9aR,10R)-7,8-dihydroxy-8-(((4-methoxybenzyl)amino)methyl)-1-methyl-4b,6,7,8,9,10-hexahydro-5H-7,9a-methanobenzo[a]azulene-10-carboxylate] | 224 to 225 °C | 30.7 ± 0.82% | 53.7 ± 0.76% | < 20% | 78.7 ± 1.47% | < 20% | 60.8 ± 2.44% | 31.7 ± 2.82% | 53.4 ± 1.68% | –
CCOC(=O)[C@H]1c2c(C)cccc2[C@H]2CC[C@]3(O)C[C@@]21C[C@]3(O)CNCc1cccc2ccccc12 [Compound 15, Ethyl (4bS,7S,8S,9aR,10R)-7,8-dihydroxy-1-methyl-8-(((naphthalen-1-ylmethyl)amino)methyl)-4b,6,7,8,9,10-hexahydro-5H-7,9a-methanobenzo[a]azulene-10-carboxylate] | 71 to 74 °C | 28.61 ± 0.15% | 97.95 ± 0.63% | < 20% | 95.96 ± 0.69% | 28.2 ± 0.88% | 96.7 ± 1.54% | 21.9 ± 1.5% | 95.48 ± 0.65% | –
CCOC(=O)[C@H]1c2c(C)cccc2[C@H]2CC[C@]3(O)C[C@@]21C[C@]3(O)CN(Cc1ccccc1)Cc1ccccc1 [Compound 17, Ethyl (4bS,7S,8S,9aR,10R)-8-((dibenzylamino)methyl)-7,8-dihydroxy-1-methyl-4b,6,7,8,9,10-hexahydro-5H-7,9a-methanobenzo[a]azulene-10-carboxylate] | 101.4 to 103 °C | < 20% | 47.1 ± 1.74% | < 20% | 36.9 ± 1.58% | 40.8 ± 1.19% | 45.6 ± 1.48% | < 20% | 78.9 ± 1.12% | –
CCOC(=O)[C@H]1c2c(C)cccc2[C@H]2CC[C@]3(O)C[C@@]21CC31CN(Cc2ccccc2)CO1 (stereo partly shown) [Compound 24, Ethyl (4b’S,7’S,9a’R,10’R)-3-benzyl-7’-hydroxy-1’-methyl-4b’,6’,7’,10’-tetrahydro-5’H,9’H-spiro[oxazolidine-5,8’-[7,9a]methanobenzo[a]azulene]-10’-carboxylate] | 125 to 126 °C | < 20% | 31.9 ± 1.28% | < 20% | 42.4 ± 1.46% | < 20% | 53.9 ± 2.21% | < 20% | 34.1 ± 1.77% | –
CCOC(=O)[C@H]1c2c(C)cccc2[C@H]2CC[C@]3(O)C[C@@]21C[C@]3(O)Cn1ccnc1 [Compound 26, Ethyl (4bS,7S,8S,9aR,10R)-8-((1H-imidazol-1-yl)methyl)-7,8-dihydroxy-1-methyl-4b,6,7,8,9,10-hexahydro-5H-7,9a-methanobenzo[a]azulene-10-carboxylate] | 101 to 103 °C | < 20% | 25.9 ± 2.53% | < 20% | < 20% | < 20% | < 20% | < 20% | < 20% | –
CCOC(=O)[C@H]1c2c(C)cccc2[C@H]2CC[C@]3(O)C[C@@]21C[C@]3(O)Cn1cnc2ccccc21 [Compound 27, Ethyl (4bS,7S,8S,9aR,10R)-8-((1H-benzo[d]imidazol-1-yl)methyl)-7,8-dihydroxy-1-methyl-4b,6,7,8,9,10-hexahydro-5H-7,9a-methanobenzo[a]azulene-10-carboxylate] | 221 to 222 °C | 26.2 ± 0.46% | 44.4 ± 1.84% | < 20% | < 20% | < 20% | 45.5 ± 1.87% | < 20% | 28.9 ± 1.27% | –
CCOC(=O)[C@H]1c2c(C)cccc2[C@H]2CC[C@]3(O)C[C@@]21C[C@]3(O)CNCc1cn(Cc2ccccc2)nn1 [Compound 31, Ethyl (4bS,7S,8S,9aR,10R)-8-((((1-benzyl-1H-1,2,3-triazol-4-yl)methyl)amino)methyl)-7,8-dihydroxy-1-methyl-4b,6,7,8,9,10-hexahydro-5H-7,9a-methanobenzo[a]azulene-10-carboxylate] | 122 to 123 °C | < 20% | 42.9 ± 0.84% | < 20% | 50.8 ± 3.01% | < 20% | 40.2 ± 5.59% | < 20% | 41.4 ± 1.13% | –
CCOC(=O)[C@@H]1c2c(C)cccc2C2CC[C@]3(O)C[C@@]21C[C@]3(O)CN[C@@H](C)c1ccc2ccccc2c1 (stereo partly drawn) [Compound 35, Ethyl (7S,8S,9aR,10S)-7,8-dihydroxy-1-methyl-8-((((S)-1-(naphthalen-2-yl)ethyl)amino)methyl)-4b,6,7,8,9,10-hexahydro-5H-7,9a-methanobenzo[a]azulene-10-carboxylate] | 56 to 59 °C | 44.6 ± 0.74% | 98.41 ± 0.74% | 29.4 ± 1.66% | 96.81 ± 0.82% | 40.1 ± 1.21% | 95.9 ± 2.21% | 42.7 ± 2.63% | 95.4 ± 0.48% | –
CCOC(=O)[C@@H]1c2c(C)cccc2C2CC[C@]3(O)C[C@@]21C[C@]3(O)CNCc1cccc2ccccc12 (stereo partly drawn) [Compound 38, Ethyl (7S,8S,9aR,10S)-7,8-dihydroxy-1-methyl-8-(((naphthalen-1-ylmethyl)amino)methyl)-4b,6,7,8,9,10-hexahydro-5H-7,9a-methanobenzo[a]azulene-10-carboxylate] | 61 to 65 °C | 27.9 ± 0.93% | 97.63 ± 0.8% | < 20% | 96.17 ± 0.76% | 26.9 ± 0.53% | 96.5 ± 1.72% | 28.6 ± 2.66% | 95.23 ± 0.66% | –
Cc1c(C)c2c(c(C)c1O)CCC(C)(C(=O)O)O2 (stereo not shown) [Trolox, 3,4-Dihydro-6-hydroxy-2,5,7,8-tetramethyl-2H-1-benzopyran-2-carboxylic acid, reference compound] | – | – | – | – | – | – | – | – | – | IC50 [6]: 20.2 µM
